This is an account of results in patent publication US8247437B2, “N-hydroxyamide derivatives and use thereof” (Merck Serono SA, priority 2004, dated 2012).

For experiment [1], the target named is 92 kDa gelatinase (MMP-9) (Homo sapiens, UniProt P14780). Nature of the experiment: MMP-9 enzyme inhibition assay (coumarin-labeled peptide substrate McaPLGLDpaAR). It counts as biochemical. The procedure: Compounds of the invention were tested for inhibitory activity against 92 kDa gelatinase (MMP-9) in an assay using a coumarin-labeled peptide substrate, (7-methoxycoumarin-4-yl)acetyl-Pro-Leu-Gly-Leu-(3-[2,4-dinitrophenyl]-L-2,3diaminopropionyl)-Ala-Arg-NH2 (McaPLGLDpaAR) (Knight et al, FEBS Lett. 1992; 263-266).
Sequence of 92 kDa gelatinase (MMP-9) (P14780 107-707 limits assumed): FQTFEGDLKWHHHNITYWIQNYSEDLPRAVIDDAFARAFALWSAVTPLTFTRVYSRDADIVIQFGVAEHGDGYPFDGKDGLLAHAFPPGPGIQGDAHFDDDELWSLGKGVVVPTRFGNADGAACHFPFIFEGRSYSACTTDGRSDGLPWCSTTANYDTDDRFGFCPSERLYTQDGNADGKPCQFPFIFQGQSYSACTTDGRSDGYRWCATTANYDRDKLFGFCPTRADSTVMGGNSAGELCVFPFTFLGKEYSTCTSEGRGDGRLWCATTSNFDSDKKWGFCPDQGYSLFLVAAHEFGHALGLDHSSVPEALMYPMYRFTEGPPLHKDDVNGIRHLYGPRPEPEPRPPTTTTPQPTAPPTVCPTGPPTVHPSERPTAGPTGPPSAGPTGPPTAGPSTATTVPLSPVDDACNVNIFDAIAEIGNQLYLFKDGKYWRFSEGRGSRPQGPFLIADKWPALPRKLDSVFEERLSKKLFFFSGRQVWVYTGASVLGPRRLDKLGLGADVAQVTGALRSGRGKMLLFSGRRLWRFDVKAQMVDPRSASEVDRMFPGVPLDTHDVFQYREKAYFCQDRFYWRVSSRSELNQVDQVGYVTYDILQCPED
(§1) Stock solutions were made up as follows: Assay Butter: 100 mM Tris-HCl pH 7.6 is containing 100 mM NaCl, 10 mM CaCl2, and 0.05% Brij 35.
(§2) Substrate: 0.4 mM McaPLGLDpaAR (from Bachem) (0.437 mg/ml) stock solution in 100% DMSO (stored at −20° C.). Dilute to 8 μM in assay butter.
(§3) Enzyme: Recombinant human 92 kDa gelatinase (MMP-9; APMA (4-aminophenyl mercuric acetate)-activated if necessary) appropriately diluted in assay butter.
(§4) Test Compounds were prepared initially as 10 mM compound solution in 100% DMSO, diluted to 1 mM in 100% DMSO, then serially diluted 3-fold in 100% DMSO across columns 1-10 of a 96-well microtitre plate Assay concentration range, 100 μM (column 1) to 5.1 nM (column 10).
(§5) The assay was performed in a total volume of 100 μL per well in 96-well microfilm plates. Activated enzyme (20 μL) was added to the wells followed by 20 μL of assay butter. Appropriate concentrations of test compounds dissolved in 10 μL of DMSO were then added followed by 50 μL of McaPLGLDpaAR (8 μM, prepared by dilution of DMSO stock in assay butter). For each as say ten concentrations of test compound were examined in duplicate. Control wells lack either enzyme or test compound. The reactions were incubated at 37° C. for 2 hours. The fluorescence at 405 nm was measured immediately with an SLT Fluostar fluorometer (SL T Labinstruments GmbH, Grödig, Austria) using 320 nm excitation, without stopping the reaction.
(§6) The effect of the test compound was determined from the dose response curve generated by the 10 duplicate concentrations of inhibitor. The IC50 (the concentration of compound required to give a 50% decrease in enzyme activity) was obtained by fitting data to the equation, Y=a+((b−a)/(1+(c/X)^d)). (Y=inhibition achieved for a particular dose; X=the dose in nM; a=minimum y or zero % inhibition; b=maximum y or 100% inhibition; c=is the IC50; d=is the slope). The result was rounded to one significant figure.

The target in another experiment is T1, gelatinase A (MMP-2) (Homo sapiens, UniProt P08253).
T1 sequence (P08253 110-660): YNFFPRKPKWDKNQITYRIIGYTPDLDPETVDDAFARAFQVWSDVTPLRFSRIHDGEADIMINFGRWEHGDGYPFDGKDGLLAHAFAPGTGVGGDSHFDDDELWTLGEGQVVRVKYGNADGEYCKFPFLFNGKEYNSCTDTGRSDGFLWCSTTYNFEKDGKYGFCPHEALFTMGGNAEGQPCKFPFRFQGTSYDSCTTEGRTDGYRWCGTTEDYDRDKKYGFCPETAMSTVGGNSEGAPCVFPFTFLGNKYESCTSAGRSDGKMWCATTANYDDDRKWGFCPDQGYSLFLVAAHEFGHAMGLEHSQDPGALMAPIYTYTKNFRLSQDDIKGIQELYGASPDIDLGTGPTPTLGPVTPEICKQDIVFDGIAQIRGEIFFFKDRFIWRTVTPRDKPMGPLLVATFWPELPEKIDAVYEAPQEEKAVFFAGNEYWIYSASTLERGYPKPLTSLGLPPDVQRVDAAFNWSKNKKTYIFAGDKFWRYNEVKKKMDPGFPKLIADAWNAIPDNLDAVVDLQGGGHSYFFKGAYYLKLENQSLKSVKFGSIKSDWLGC
Put plainly: MMP-2 enzyme inhibition assay (coumarin-labelled peptide substrate McaPLGLDpaAR). It counts as biochemical. The procedure:
as §1, §2, §3, §4, §5, §6
Compounds of the invention were tested for inhibitory activity against gelatinase A (MMP-2) in an assay using a coumarin-labelled peptide substrate, (7-methoxycoumarin-4-yl)acetyl-Pro-Leu-Gly-Leu-(3-[2,4-dinitrophenyl]-L-2,3diaminopropionyl)-Ala-Arg-NH2 (Mca PLGLDpaAR) (Knight et al, 1992, above). The protocol for this assay was as described for the MMP-9 assay above.

Experiment [2] concerns IL-2-induced peritoneal recruitment of lymphocytes. Put plainly: IL-2-induced peritoneal recruitment of lymphocytes. It counts as in vivo, C3H/HEN mice. Conditions: mice, 15 min prior to IL-2, cells collected 24 h after IL-2. The procedure:
Administration of IL-2 intraperitoneally causes migration of lymphocytes into the intraperitoneal cavity. This is a model for the cellular migration that occurs during inflammation.
C3H/HEN mice (Elevage Janvier, France) were intraperitoneally injected with IL-2 (Serono Pharmaceutical Research Institute, 20 μg/kg, in saline).
Compounds of the invention were suspended in 0.5% carboxymethylcellulose (CMC)/0.25% tween-20 and were administered by s.c. or p.o. route (10 ml/kg) 15 min prior to administration of IL-2.
Twenty-four hours after administration of IL-2, peritoneal white blood cells were collected by 3 successive lavages of the peritoneal cavity with 5 ml phosphate buffered saline (PBS)-1 mM EDTA (+4° C.). The suspension was centrifuged (1700 g×10 min at +4° C.). The resulting pellet was suspended in 1 ml PBS-1 mM EDTA.
Lymphocytes were identified and counted using a Beckman/Coulter counter.
The animals were divided into 6 groups (6 mice each group):
Group 1: (baseline) received 0.5% CMC/0.25% tween-20 (vehicle of compound of the invention) and saline (vehicle of IL-2);
Group 2: (control IL-2) received 0.5% CMC/0.25% tween-20 and injection of IL-2;
Group 3: Experimental group (Compound of the invention Dose 1) received a compound of the invention and injection of IL-2;
Group 4: Experimental group (Compound of the invention Dose 2) received a compound of the invention and injection of IL-2;
Group 5: Experimental group (Compound of the invention Dose 3) received a compound of the invention and injection of IL-2;
Group 6: Reference group received reference compound dexamethasone and injection of IL-2.
Inhibition of lymphocyte recruitment was calculated as follows:
Where Ly 1=Number of lymphocytes in group 1 (E3/μl), Ly 2=Number of lymphocytes in group 2 (E3/μl), Ly X=Number of lymphocytes in group X (3-5) (E3/μl).

A further experiment deals with metalloelastase (MMP-12) (Homo sapiens, UniProt P39900). Nature of the experiment: MMP-12 enzyme inhibition assay (coumarin-labelled peptide substrate McaPLGLDpaAR). It counts as biochemical. The procedure: as §1, §2, §3, §4, §5, §6
Sequence of metalloelastase (MMP-12) (P39900 106-470): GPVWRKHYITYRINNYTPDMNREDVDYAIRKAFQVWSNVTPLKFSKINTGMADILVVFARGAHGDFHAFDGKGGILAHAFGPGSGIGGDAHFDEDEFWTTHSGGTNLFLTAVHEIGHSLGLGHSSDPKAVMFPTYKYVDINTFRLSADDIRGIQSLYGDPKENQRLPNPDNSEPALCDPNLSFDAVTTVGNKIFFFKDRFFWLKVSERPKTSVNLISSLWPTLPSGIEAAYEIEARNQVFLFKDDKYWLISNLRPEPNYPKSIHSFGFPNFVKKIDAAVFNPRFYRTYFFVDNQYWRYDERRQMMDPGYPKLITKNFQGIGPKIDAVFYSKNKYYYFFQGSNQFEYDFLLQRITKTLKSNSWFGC
Compounds of the invention were tested for inhibitory activity against metalloelastase (MMP-12) in an assay using a coumarin-labelled peptide substrate, (7-methoxycoumarin-4-yl)acetyl-Pro-Leu-Gly-Leu-(3-[2,4-dinitrophenyl]-L-2,3-diaminopropionyl)-Ala-Arg-NH2 (McaPLGLDpaAR) (Knight et al, 1992, above). The protocol for this assay was as described for the MMP-9 assay above.

The target of another experiment is T2, collagenase (MMP-1) (Homo sapiens, UniProt P03956).
T2 sequence (P03956 100-469): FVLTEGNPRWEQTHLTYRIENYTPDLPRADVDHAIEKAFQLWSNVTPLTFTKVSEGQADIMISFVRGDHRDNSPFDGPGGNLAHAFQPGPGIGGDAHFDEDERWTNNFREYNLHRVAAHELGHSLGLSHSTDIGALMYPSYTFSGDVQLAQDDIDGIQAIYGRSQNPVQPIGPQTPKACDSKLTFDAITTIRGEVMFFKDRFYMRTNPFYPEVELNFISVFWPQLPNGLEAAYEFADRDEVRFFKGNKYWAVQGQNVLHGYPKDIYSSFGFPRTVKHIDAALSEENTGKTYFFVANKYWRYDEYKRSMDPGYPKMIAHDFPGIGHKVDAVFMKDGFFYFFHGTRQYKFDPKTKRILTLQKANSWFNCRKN
Nature of the experiment: MMP-1 enzyme inhibition assay (coumarin-labelled peptide substrate McaPLGLDpaAR). It counts as biochemical. Here is the method: as §1, §2, §3, §4, §5, §6
Compounds of the invention were tested for inhibitory activity against collagenase (MMP-1) in an assay using a coumarin-labelled peptide substrate, (7-methoxycoumarin-4-yl)acetyl-Pro-Leu-Gly-Leu-(3-[2,4-dinitrophenyl]-L-2,3diaminopropionyl)-Ala-Arg-NH2 (Mca PLGLDpaAR) (Knight et al, 1992, above). The protocol for this assay was as described for the MMP-9 assay above.

[3] abbreviates: Table 1, compounds of Formula (I), read-out: MMP-9 IC50.
Setting [4] is: Table 1, compounds of Formula (I), read-out: MMP-2 IC50.
The mark [5] stands for this setting: dose 1 mg/kg po, Table 3, Formula (I).
[6] abbreviates: Table 1, compounds of Formula (I), read-out: MMP-12 IC50.
[7] abbreviates: Table 1, compounds of Formula (I), read-out: MMP-1 IC50.
[8] abbreviates: dose 1 mg/kg po, Table 4, Formula (VI).

Where two headings read alike, the source gives them in different places. A value given as a limit tells only on which side of the number the result lay.

For `CCOc1ccc(CCCC(C(=O)N2CCN(c3ccccn3)C[C@H]2C)[C@H](O)C(=O)NO)cc1` (mixture of isomers) [Example 6, (2S,3S)-6-(4-ethoxyphenyl)-N,2-dihydroxy-3-{[(2R)-2-methyl-4-pyridin-2-ylpiperazin-1-yl]-carbonyl}hexanamide], the 50% inhibitory concentration (IC50) – broadly, the point on the concentration scale where inhibition reaches its midpoint – in experiment [1] (setting [3]) is 22 nM; on gelatinase A (MMP-2) (setting [4]) it was 8 nM; on metalloelastase (MMP-12) (setting [6]) it was 20 nM; at collagenase (MMP-1) (setting [7]), above 5 µM. The “% inhibition of IL-2-induced peritoneal recruitment of lymphocytes” value (shortened to “% inhibition”) in experiment [2] (setting [5]) was determined as 46%; in experiment [2] (dose 3 mg/kg po, Table 3, Formula (I)) it was 65%.

With `CC(C)C[C@H](C(=O)N1CC=C(c2ccccc2)CC1)[C@@H](O)C(=O)NO` [Example 61, (2R,3S)-N,2-dihydroxy-5-methyl-3-[(4-phenyl-3,6-dihydropyridin-1(2H)-yl)carbonyl]hexanamide], the IC50 is 48 nM in experiment [1] (setting [3]), 8 nM on gelatinase A (MMP-2) (setting [4]), 2 nM on metalloelastase (MMP-12) (setting [6]) and above 5 µM at collagenase (MMP-1) (setting [7]). In addition, the “% inhibition” value in experiment [2] (setting [5]) was 67%.

For `CCOc1ccc(CCC[C@@H](C(=O)N2CCC(Nc3ccccc3)CC2)[C@H](O)C(=O)NO)cc1` [Example 20, (2S,3R)-3-[(4-anilinopiperidin-1-yl)carbonyl]-6(4-ethoxyphenyl)-N,2-dihydroxyhexanamide], the half-inhibitory concentration (IC50) is 37 nM in experiment [1], 82 nM on gelatinase A (MMP-2), 29 nM at metalloelastase (MMP-12) and above 5 µM at collagenase (MMP-1). In experiment [2] (setting [8]), the “% inhibition” value worked out at 38%.

With `CCOc1ccc(CCC[C@@H](C(=O)N2C[C@@H]3C[C@H]2CN3c2ccc(F)cc2)[C@H](O)C(=O)NO)cc1` [Example 47, (2S,3R)-6-(4-ethoxyphenyl)-3-{[(1S,4S)-5-(4-fluorophenyl)-2,5-diazabicyclo[2.2.1]hept-2-yl]carbonyl}-N,2-dihydroxyhexanamide], the “% inhibition” value in experiment [2] (setting [8]) came out at 41%.

Consider `CC(C)C[C@H](C(=O)N1CCN(c2ccccn2)C[C@H]1C)[C@H](O)C(=O)NO` (single isomer, unassigned) [Example 4], for which the IC50 in experiment [1] (setting [3]) came out at 12 nM; on gelatinase A (MMP-2) (setting [4]), 4 nM; at metalloelastase (MMP-12) (setting [6]), 17 nM; at collagenase (MMP-1) (setting [7]) it was 0.301 µM. For the same compound, the “% inhibition” value in experiment [2] (setting [5]) is listed as 39%.

Turning to `CCOc1ccc(CCC[C@@H](C(=O)N2CCN(CCN3CCOCC3)CC2)[C@H](O)C(=O)NO)cc1` [Example 37, (2S,3R)-6-(4-ethoxyphenyl)-N,2-dihydroxy-3-{[4-(2-morpholin-4-ylethyl)piperazin-1-yl]-carbonyl}hexanamide], the IC50 in experiment [1] (Table 2, compounds of Formula (VI), read-out: MMP-9 IC50) was 52 nM; at gelatinase A (MMP-2) (Table 2, compounds of Formula (VI), read-out: MMP-2 IC50), 65 nM; at metalloelastase (MMP-12) (Table 2, compounds of Formula (VI), read-out: MMP-12 IC50), 23 nM; at collagenase (MMP-1) (Table 2, compounds of Formula (VI), read-out: MMP-1 IC50), above 5 µM. Moreover, the “% inhibition” value in experiment [2] (setting [8]) was 42%.

Turning to `CCOc1ccc(CCC[C@H](C(=O)N2CCN(c3ccccn3)C[C@@H]2C)[C@H](O)C(=O)NO)cc1` [Example 7, (2S,3S)-6-(4-ethoxyphenyl)-N,2-dihydroxy-3-{[(2S)-2-methyl-4-(2-pyridinyl)piperazinyl]carbonyl}hexanamide], in experiment [2] (setting [5]), the “% inhibition” value was 46%.

As for `CC(C)C[C@H](C(=O)N1CCN(c2ccc(-c3ccccc3)cc2)C[C@H]1C)[C@H](O)C(=O)NO` [Example 53, (2S,3S)-3-{[(2R)-4-biphenyl-4-yl-2-methylpiperazin-1-yl]carbonyl}-N,2-dihydroxy-5-methylhexanamide], the half-maximal inhibitory concentration (IC50) in experiment [1] (setting [3]) was 7 nM; on gelatinase A (MMP-2) (setting [4]), 7.5 nM; on metalloelastase (MMP-12) (setting [6]) it was 5 nM; at collagenase (MMP-1) (setting [7]) it was above 5 µM. Further, the “% inhibition” value in experiment [2] (setting [5]) worked out at 61%.
